Several values for one entry are separate records, joined by “and”; a condition that tells them apart may be missing. Identical values can stand only once.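 Dose response: 5 concentrations. Exposure: 48 h. Format: 96-well plates. Endpoint: linear interpolation; highest concentration if not reached. GI50: concentration for 50% inhibition of growth. TGI: concentration producing complete growth inhibition.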
Legend:
Assay in all cases: NCI anticancer screen, dose series, 48 h
NCI-H23 lung = test system: NCI-H23 lung
HT29 colon = test system: HT29 colon
A498 renal = test system: A498 renal
MALME-3M melanoma = test system: MALME-3M melanoma
OVCAR-4 ovarian = test system: OVCAR-4 ovarian
NCI/ADR-RES ovarian = test system: NCI/ADR-RES ovarian
SNB-19 CNS = test system: SNB-19 CNS
NCI-H226 lung = test system: NCI-H226 lung
CCRF-CEM leukemia = test system: CCRF-CEM leukemia
RPMI-8226 leukemia = test system: RPMI-8226 leukemia

Row | Compound | GI50 (NCI-H23 lung) | TGI (NCI-H23 lung) | GI50 (HT29 colon) | TGI (HT29 colon) | GI50 (A498 renal) [nM] | TGI (A498 renal) | GI50 (MALME-3M melanoma) [nM] | TGI (MALME-3M melanoma) | GI50 (OVCAR-4 ovarian) [nM] | TGI (OVCAR-4 ovarian) | GI50 (NCI/ADR-RES ovarian) | TGI (NCI/ADR-RES ovarian) [µM] | GI50 (SNB-19 CNS) [µM] | TGI (SNB-19 CNS) | GI50 (NCI-H226 lung) [nM] | TGI (NCI-H226 lung) | GI50 (CCRF-CEM leukemia) [nM] | TGI (CCRF-CEM leukemia) [µM] | GI50 (RPMI-8226 leukemia) [nM] | TGI (RPMI-8226 leukemia)
1 | CCSC1=NC2C(N(CC)C(=O)N2CC)N1/N=C/C=C/c1ccccc1[N+](=O)[O-] (centres undefined) | 351 nM | > 100 µM | 160 nM | > 100 µM | 28.3 | 0.209 µM | 135 | > 100 µM | 280 | > 100 µM | 209 nM | > 100 | 0.372 | > 100 µM | 381 | > 100 µM | 331 | > 100 | 334 | > 34.1 µM
2 | COc1cc(C)ccc1C(=O)c1ccc(C)cc1OC | 6310 nM | > 100 µM | 1850 nM | 7.99 µM | 1240 | 39.6 µM | 4670 | > 100 µM | 45100 | > 100 µM | 1310 nM | 8.14 | 7.31 | > 100 µM | 4450 | 72.7 µM | 5570 | > 100 | 3700 | 27.7 µM
3 | CC(=O)c1c(C(F)(F)F)n([O-])c2ccccc2[n+]1=O | 1000 nM | 2.43 µM | 1300 nM | 8.3 µM | 1560 | 4.48 µM | 652 | 3.06 µM | 969 | 3.9 µM | 1490 nM | 2.93 | 4.77 | 18.5 µM | 1460 | 3.91 µM | – | – | 572 | 3.62 µM
4 | CC1CC(C)CC(C)C(O)/C(C#N)=C/C=C/CC(C2CCCC2C(=O)O)OC(=O)CC(O)C(C)C1 (centres undefined) | 18.3 nM and < 10.5 nM | 0.0919 µM and 0.0221 µM | 64.4 nM and 28.6 nM | 0.574 µM and 0.321 µM | 15.2 | 0.0482 µM and 0.0186 µM | 115 | 0.312 µM and 0.106 µM | 126 | 0.51 µM and 1.89 µM | 187 nM and < 19.6 nM | 0.265 | 0.0232 | 0.109 µM and 0.0359 µM | 31 | 0.0951 µM and 0.029 µM | 24.1 | – | 4.86 | 0.0315 µM and < 0.145 µM
5 | O=C(Nc1cccc(Cl)c1)Nn1cnnc1 | > 50000 nM | > 100 µM | > 50000 nM | > 100 µM | > 50000 | > 100 µM | > 50000 | > 100 µM | > 50000 | > 100 µM | > 50000 nM | > 100 | > 50 | > 100 µM | > 50000 | > 100 µM | > 50000 | > 100 | > 50000 | > 100 µM
6 | CC(=O)Nc1ccc(-c2cc(C(=O)O)c3cc4ccccc4cc3n2)cc1 | – | > 100 µM | – | > 100 µM | – | > 100 µM | – | > 100 µM | – | > 100 µM | – | > 100 | – | > 100 µM | – | > 100 µM | – | – | – | > 100 µM
7 | Nc1nc2ccc(-c3nc4ccc5[nH]ncc5c4c4c3CCC4)cc2s1 | 546 nM | 8.25 µM | 191 nM | 19.8 µM | 108 | 0.624 µM | 202 | 1.63 µM | 835 | 6.25 µM | 302 nM | 18.8 | 0.318 | 11.4 µM | 1100 | 10.1 µM | 225 | 50 | 472 | 10.5 µM
8 | C[C@@H](NC(C#N)c1ccco1)c1ccccc1 (some centres undefined) | – | > 100 µM | – | > 100 µM | – | > 100 µM | – | > 100 µM | – | – | – | > 100 | – | > 100 µM | – | > 100 µM | – | > 100 | – | > 100 µM
9 | CCCN1C(=O)NC(=O)C(CC)(N2C(=O)c3c(F)c(F)c(F)c(F)c3C2=O)C1=O (centres undefined) | 2170 nM | 5.77 µM | 1400 nM | 3.62 µM | 3930 | 11.6 µM | 2060 | 5.31 µM | 2220 | 4.83 µM | 2910 nM | 10.5 | 2.44 | 6.53 µM | 3080 | 12.1 µM | 1100 | 3.24 | 596 | 3.14 µM
10 | CO/N=C(\COc1ccc2c(c1)[nH]c1ccccc12)c1ccc(OC)cc1 | 32200 nM | > 100 µM | 4360 nM | > 100 µM | 19200 | 46 µM | 9710 | 74.6 µM | 10500 | > 100 µM | > 100000 nM | > 100 | 24.4 | > 100 µM | > 100000 | > 100 µM | > 100000 | > 100 | > 100000 | > 100 µM
11 | COc1ccc(-c2noc(C(=O)O)c2-c2cc(OC)c(OC)c(OC)c2)cc1 | 9170 nM | > 100 µM | 1500 nM | > 100 µM | 1430 | 7.02 µM | 8020 | > 100 µM | 9530 | > 100 µM | 1470 nM | > 100 | 6.75 | > 100 µM | > 100000 | > 100 µM | 3520 | > 100 | 4010 | > 100 µM
12 | C/C(=N/O)c1cccc(Nc2cc(-n3nnc4ccccc43)nc3ccccc23)c1 | 15700 nM | 35.5 µM | 12300 nM | > 100 µM | 25000 | 55.8 µM | 16800 | 48 µM | 18800 | > 100 µM | 8360 nM | 27.9 | 25.7 | > 100 µM | 11800 | 47.3 µM | 3980 | 18.6 | 3070 | 14.4 µM
13 | CCN1C(=O)N(CC)C2C1NN=c1s/c(=C\c3ccc(Cl)cc3Cl)c(=O)n12 (centres undefined) | 50.5 nM | > 100 µM | 32.9 nM | 12.3 µM | 19.4 | 0.0667 µM | 77.7 | > 75 µM | 79.2 | > 95.9 µM | 30.1 nM | > 32 | 0.0503 | > 100 µM | 129 | – | 36.1 | > 100 | 39.1 | 7.25 µM

Source: PubChem BioAssay (NCI)
